Experimental data reported in article PMC12527934 (Nature, 2025).
*1 amine or outer side, *2 acyl side, *3 side chain or, on linkers, in order; H or OH if unused. Where a SMILES comes first, the peptide text is derived from it. Bridges are numbered along the chain shown (N, C = ends). [ ]: non-standard residue; d: D form. The star is where a group is joined. X4 = CN([C@@H](Cc1cc(Cl)ccc1-c1cnn(C)c1)C(=O)[*:2])[*:1]; X5 = CN([C@@H](Cc1cc(Cl)nn1-c1ccccc1)C(=O)[*:2])[*:1]; cBuCO(3,3-F2-1-CF3) = O=C(C1(C(F)(F)F)CC(F)(F)C1)*; NMePhe(2,5-Cl2) = CN[C@@H](Cc1cc(Cl)ccc1Cl)C(=O)O; X2 = CCCN([C@@H](Cc1cc(Cl)ccc1Cl)C(=O)[*:2])[*:1]; Nle(6-morpholino) = N[C@@H](CCCCN1CCOCC1)C(=O)O; X6 = CN([C@H](Cc1cc(Cl)ccc1Cl)C(=O)[*:2])[*:1]; Pro(trans-4-F) = O=C(O)[C@@H]1C[C@@H](F)CN1; dPro(trans-4-F) = O=C(O)[C@H]1C[C@H](F)CN1; X3 = O=C([C@@H](c1cccnc1)C1CCCCC1)*; Gly(cPr) = N[C@H](C(=O)O)C1CC1; X1 = C[C@@](O)(C(=O)*)C(F)(F)F; Cba = N[C@@H](CC1CCC1)C(=O)O; NMeK = CN[C@@H](CCCCN)C(=O)O; dCba = N[C@H](CC1CCC1)C(=O)O; dNMeK = CN[C@H](CCCCN)C(=O)O; dNva = CCC[C@@H](N)C(=O)O; Ac3c = NC1(C(=O)O)CC1; Aib = CC(C)(N)C(=O)O

What was measured:
NCI-H1048 cells [1] = assay: Live-cell imaging of mitosis; format: cell-based, human; conditions: NCI-H1048 GFP–H2B, 20 nM
46 human SCLC cell lines = assay: Cell Titer Glo proliferation assay, panel of 46 SCLC cell lines; format: cell-based; conditions: 4–8 days
[2] = tested on: human peripheral blood CD34+ cells; format: cell-based; conditions: CD34+ haematopoietic stem and progenitor cells, even at high doses
RPE1 cells = assay: Cell-count dose–response assay; format: cell-based, human; conditions: RPE1, even at high doses
NCI-H69 xenografts = assay: NCI-H69 cell line xenograft efficacy study; format: in vivo, mouse; conditions: 100 mg per kg daily i.v. 14 days
NCI-H1048 xenografts = assay: NCI-H1048 cell line xenograft efficacy study; format: in vivo, mouse; conditions: 100 mg per kg daily i.v. 14 days
[3] = Body weight, NCI-H1048 xenograft study; format: in vivo, mouse; conditions: 100 mg per kg daily 14 days
[4] = Body weight, NCI-H69 xenograft study; format: in vivo, mouse; conditions: 100 mg per kg daily 14 days
NCI-H69 cells = assay: Nocodazole synchronization, propidium iodide FACS; format: cell-based, human; conditions: NCI-H69, 60 ng ml−1, overnight
NCI-H1048 cells [5] = assay: Cell-count dose–response assay; format: cell-based, human; conditions: for activity in proliferation, apoptosis and cell cycle assays: NCI-H1048
[6] = tested on: p-KNL1 in NCI-H1048 cells; assay: Immunoblot of p-KNL1; format: cell-based, human

## CC(C)C[C@@H]1NC(=O)[C@@H](N(C)C(=O)[C@H](CC2CCC2)NC(=O)[C@@H]2C[C@@H](F)CN2C(=O)C2(C(F)(F)F)CC(F)(F)C2)CCCCNC(=O)C2(CC2)NC(=O)[C@H](Cc2cc(Cl)ccc2Cl)N(C)C1=O [CIRc-004] ({cBuCO(3,3-F2-1-CF3)}-[Pro(trans-4-F)][Cba][NMeK]L[NMePhe(2,5-Cl2)][Ac3c]; lactam 3-C)
NCI-H1048 cells [1]
  anaphase initiation (live-cell imaging): blocked anaphase initiation
46 human SCLC cell lines
  sensitivity of 46 SCLC cell lines in anti-proliferation assays: Nearly all lines were highly sensitive
[2]
  sensitivity of normal cells (mitotic arrest, apoptosis): insensitive
RPE1 cells
  sensitivity of normal cells (mitotic arrest, apoptosis): insensitive

## CCCN1C(=O)[C@H](CC(C)C)NC(=O)[C@@H](N(C)C(=O)[C@H](CC2CCC2)NC(=O)[C@@H]2C[C@@H](F)CN2C(=O)[C@@](C)(O)C(F)(F)F)CCCCNC(=O)C2(CC2)NC(=O)[C@@H]1Cc1cc(Cl)ccc1Cl [CIRc-028] (X1-[Pro(trans-4-F)][Cba][NMeK]L[X2][Ac3c]; lactam 3-C)
NCI-H69 xenografts
  tumour response: induced tumour regressions
NCI-H1048 xenografts
  tumour response: substantially inhibited growth
[3]
  tolerability, body weight: well tolerated without weight loss
[4]
  tolerability, body weight: well tolerated without weight loss

## COC(=O)Nc1nc2ccc(C(=O)c3cccs3)cc2[nH]1 [nocodazole]
NCI-H69 cells
  cells in mitotic arrest: around 90%

## CCC[C@H]1NC(=O)[C@H](Cc2cc(Cl)ccc2-c2cnn(C)c2)N(C)C(=O)[C@H](CC(C)C)NC(=O)[C@@H](N(C)C(=O)[C@H](CCCCN2CCOCC2)NC(=O)[C@@H](c2cccnc2)C2CCCCC2)CCCCNC1=O [CIRc-018] (X3-[Nle(6-morpholino)][NMeK]L[X4][dNva]; lactam 2-C)
NCI-H1048 cells [5]
  activity in proliferation, apoptosis and cell cycle assays: lacked activity

## CC(C)C[C@@H]1NC(=O)[C@@H](N(C)C(=O)[C@@H](NC(=O)[C@@H]2C[C@@H](F)CN2C(=O)C2(C(F)(F)F)CC(F)(F)C2)C2CC2)CCCCNC(=O)C(C)(C)NC(=O)[C@H](Cc2cc(Cl)nn2-c2ccccc2)N(C)C1=O [CIRc-019] ({cBuCO(3,3-F2-1-CF3)}-[Pro(trans-4-F)][Gly(cPr)][NMeK]L[X5][Aib]; lactam 3-C)
NCI-H1048 cells [5]
  activity in proliferation, apoptosis and cell cycle assays: lacked activity

## CC(C)C[C@H]1NC(=O)[C@H](N(C)C(=O)[C@@H](CC2CCC2)NC(=O)[C@H]2C[C@H](F)CN2C(=O)C2(C(F)(F)F)CC(F)(F)C2)CCCCNC(=O)C2(CC2)NC(=O)[C@@H](Cc2cc(Cl)ccc2Cl)N(C)C1=O [CIRc-005] ({cBuCO(3,3-F2-1-CF3)}-[dPro(trans-4-F)][dCba][dNMeK][dL][X6][Ac3c]; lactam 3-C)
NCI-H1048 cells [5]; NCI-H1048, 200 nM
  effect on cellular proliferation: had no effect on cellular proliferation

## COCc1cc(C(=O)Nc2cc([C@H]3CC[C@@H](OC(=O)NC(C)C)C3)[nH]n2)n(C)n1 [PF-07104091]
[6]; NCI-H1048 cells, 24 h
  SAC activation: did not activate the SAC

## COc1ccc(Oc2cc(NCCC(F)(F)F)c3ncc(-c4ccc(C(=O)NC5CC5)c(C)c4)n3n2)c(F)c1F [BAY-1217389]
[6]; 3 nM, NCI-H1048
  KNL1 phosphorylation and proliferation: blocked KNL1 phosphorylation without affecting proliferation
